For this data set the following is noted: disulfide bond; 38-membered ring.

The substance S1C(disialo)•N19C(GlcNAc)-SRIF28 gave a ring closure, yield after HPLC of 59%.

These data come from US9422357.
